In patent publication EP3381906A1, “COMPOUNDS FOR USE AS HEPARANASE INHIBITORS” (Leadiant Biosciences SA, priority 2017, dated 2018):

What was measured:
[1] = test system: U87MG; experiment: Cell adhesion assay on matrigel coated wells; assay type: cell-based, human; conditions: percent of adhesion with respect to the control (100%)
[2] = target: T1, heparanase (Homo sapiens, UniProt Q9Y251); experiment: AGA*IA assay: heparanase-catalyzed fondaparinux cleavage, colorimetric (WST-1); assay type: biochemical; conditions: 2.5 nM heparanase, 100 µM fondaparinux, pH 5.0, 3 h at 37°C; class symbols; read-out: AGAIA assay (IC50)
T1 construct: 100 µM fondaparinux, 2.5 nM heparanase and serial dilutions of test compounds
T1 sequence (Q9Y251 158-543 limits assumed): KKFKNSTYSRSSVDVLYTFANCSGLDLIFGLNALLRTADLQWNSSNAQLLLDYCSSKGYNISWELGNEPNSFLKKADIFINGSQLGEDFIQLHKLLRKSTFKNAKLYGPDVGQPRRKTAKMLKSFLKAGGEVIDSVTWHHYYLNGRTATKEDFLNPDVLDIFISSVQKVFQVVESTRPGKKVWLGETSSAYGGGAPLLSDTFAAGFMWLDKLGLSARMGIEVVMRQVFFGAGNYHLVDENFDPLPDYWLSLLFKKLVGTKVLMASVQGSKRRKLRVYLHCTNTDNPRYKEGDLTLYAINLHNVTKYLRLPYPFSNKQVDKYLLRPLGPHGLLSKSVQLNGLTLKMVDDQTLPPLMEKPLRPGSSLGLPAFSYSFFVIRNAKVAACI
T1 sequence (Q9Y251 36-109 limits assumed): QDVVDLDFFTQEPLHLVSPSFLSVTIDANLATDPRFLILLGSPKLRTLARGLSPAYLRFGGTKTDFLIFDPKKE
Protocol: All compounds were tested in a simple, accurate and robust microplate assay based on the cleavage of the synthetic heparin fragment, the pentasaccharide Fondaparinux (AGA*IA). This assay was originally developed by Hammond and coworkers [Hammond E, Li CP, Ferro V. Development of a colorimetric assay for heparanase activity suitable for kinetic analysis and inhibitor screening. […] Fondaparinux is cleaved by heparanase to generate a reducing disaccharide, which can be quantitatively measured via a colorimetric or a fluorescence assay, the last by the fluorescent sensor polymer-H [Schiemann S, Lühn S, Alban S. Development of both colorimetric and fluorescence heparinase activity assays using fondaparinux as substrate.
The assay measures the appearance of the disaccharide product of heparanase-catalyzed fondaparinux cleavage colorimetrically using the tetrazolium salt WST-1. Assay was essentially performed as described with minor modifications. Briefly, NUNC ELISA 96-well plates were pre-treated with a solution of 4% BSA (bovin serum albumin) in phosphate-buffered saline containing 0.05% Tween 20 (PBST), for 2 h at 37°C, then washed three times with PBST, dried by tapping on paper towel and stored at -20°C. Before use, once again, the plates were washed with PBST.
Then, the absorbance at 560 nm was measured through a microplate reader (Victor 3, Perkin Elmer).
Finally, the measurements were corrected by subtracting both the reagent background and the inner absorbance value of test compound.

[3] = test system: U87MG (human glioblastoma astrocytoma); experiment: SRB Cell Cytotoxicity Assay; assay type: cell-based; conditions: U-87 MG, treated for 72h, read-out: Concentration of test compounds at which the cell growth is inhibited by 50 % U87MG
Excerpt: (§1) SRB Cell Cytotoxicity Assay is an assay based upon the quantitative staining of cellular proteins by sulforhodamine B (SRB). This assay can be used for high-throughput drug screening (Vichai & Kirkitara, Nature Protocol. 2006, 1, 112). Sulforhodamine B is an anionic aminoxanthene dye that forms an electrostatic complex with the basic amino acid residues of proteins under moderately acid conditions, which provides a sensitive linear response.
(§2) To assess a putative antiproliferative activity of the selected compounds, HT1080 (human fibrosarcoma), U87MG (human glioblastoma astrocytoma) and U2OS (human osteosarcoma) cell lines were treated for 72h, in triplicate, with increasing concentrations of heparanase inhibitors. Inhibition of cell proliferation was then measured by the classical colorimetric SRB Cell Cytotoxicity assay. Absorbance was measured by spectrophotometer at a wavelength of 510 nm and cell proliferation was determined as percent with respect to control cells (cells treated with the vehicle alone). EC50 values were then determined by GraphPad Prism.

[4] = test system: HT1080 (human fibrosarcoma); experiment: SRB Cell Cytotoxicity Assay; assay type: cell-based; conditions: HT-1080, HT1080, treated for 72h, read-out: Concentration of test compounds at which the cell growth is inhibited by 50 % HT1080
Excerpt: as §1, §2

[5] = test system: U2OS (human osteosarcoma); experiment: SRB Cell Cytotoxicity Assay; assay type: cell-based; conditions: treated for 72h, read-out: Concentration of test compounds at which the cell growth is inhibited by 50 % U2OS
Excerpt: as §1, §2

[6] = test system: HT1080 (human fibrosarcoma); experiment: Cell adhesion assay on matrigel coated wells; assay type: cell-based; conditions: percent of adhesion with respect to the control (100%)
Protocol: Cell surface, non-integrin molecules such as heparan sulfate proteoglycans (HSPGs) may be involved in the regulation of early adhesive stages of cell-ECM interactions. A cell adhesion assay has been employed to determine if the newly designed heparanase inhibitors were able to interfere with adhesion properties of cancer cells.
HT1080 (human fibrosarcoma) cells were treated for 18-20 h with test compounds in complete medium supplemented with 10% FCS. Then cells were collected, washed in complete medium, and added to matrigel coated wells in triplicate, at previously identified optimal seeding density, and incubated at 37 °C in complete medium for times ranging from 15 minutes to 4h, according to the cell line. After incubation, the wells were washed three times with serum-free medium and the remaining firmly attached cells were stained with crystal-violet 0.1%. Optical density was measured at 560 nm by Victor 3 (Perkin-Elmer) plate analyzer. Each experiment was repeated three times.

[7] = test system: U87MG; experiment: Matrigel cell invasion assay; assay type: cell-based, human; parameters: key to Invasion Assay Inhibition (%) U87MG: +++: > 90%; ++: 50-90 %; +: < 50%; -: Not active; conditions: for inhibition at 2.5 µM: Homo sapiens, U-87 MG, Conc. 2.5 µM
[8] = test system: U2OS; experiment: Matrigel cell invasion assay; assay type: cell-based, human; parameters: key to Invasion Assay Inhibition (%) U2OS: +++: > 90%; ++: 50-90 %; +: < 50%; -: Not active; conditions: for inhibition at 2.5 µM: Homo sapiens, Conc. 2.5 µM
[9] = test system: HT1080 (human fibrosarcoma); experiment: Matrigel cell invasion assay; assay type: cell-based; conditions: for inhibition at 2.5 µM: HT-1080, HT1080, Conc. 2.5 µM
Protocol: Heparanase inhibitors were then evaluated for their activity on the invasive potential of HT1080 (human fibrosarcoma) human cell lines, using the Matrigel cell invasion assay which allows to assess the cell invasion ability of malignant and normal cells.
Invasion assay was performed using BioCoat cell culture inserts (BioCoat 8.0µm PET Membrane 24 Well Permeable Supports, Corning). Filters were coated with 100 µl of 300 µg/ml Matrigel dissolved in coating buffer (0.01M Tris pH 8.0, 0.7% NaCl) (Becton-Dickinson Sciences). DMEM (Dulbecco's Modified Eagle's Medium) containing 5% FBS was added to the lower chambers. Cells were pre-treated with heparanase inhibitors for 24 h, detached and added to the upper chambers in media containing the inhibitors. Cells were allowed to invade for 24 h at 37°C in a CO2 incubator and then unmigrated cells were removed from the upper chamber with a cotton swab. The invading cells were fixed, stained with 0.1% crystal violet for 10 min at room temperature, photographed and counted under inverted microscope.
Test compounds were analyzed at fixed concentration for several fields, in duplicates. Activity of test compounds was compared to the reference compound. Activity of most interesting compound was confirmed in a second cell invasion assay. Data were expressed as the percent invasion with respect to cell migration through uncoated insert membrane. (Table 5)

[10] = test system: VEGF; experiment: Real-Time Quantitative PCR of pro-angiogenic genes in HT1080 cells; assay type: cell-based, human; conditions: 24 h, Conc 2.5 uM
Protocol: (§3) To evaluate the effect of heparanase inhibitors on the tumor transcription of genes encoding for proangiogenic factors, such as FGF1/2, VEGF, MMP-9, HSPE-1, the relative mRNA levels were analyzed by quantitative Real-Time Quantitative PCR. To perform the assay, HT1080 (human fibrosarcoma) cells were cultured in complete medium containing 10%FCS (fetal calf serum). Cells were plated in 24-well plates and treated at fixed concentration (i.e., highest non-toxic concentration) of test compounds. After 24 h, cells were detached, collected and total RNA extracted by RNeasy Mini Kit (QIAGEN). Following reverse transcription step, FGF1/2, VEGF, MMP-9, HSPE-1 mRNA levels, were quantified by qPCR using the advanced Universal SYBR Green Supermix (Bio Rad) and ABI PRISM 7900HT Thermal Cycler System (Perkin Elmer), according to the manufacturer's instructions. Appropriate no-RT and non-template controls were included in each 96-well PCR reaction, and dissociation analysis was performed at the end of each run to confirm the specificity of the reaction. Relative levels of RNA were calculated using the ddCt method. Standard curve and sample data were run in duplicate. In the Table a mean value is reported.

[11] = test system: FGF-2; experiment: as above; assay type: cell-based, human; conditions: 24 h, Conc 2.5 uM
Protocol: as §3

[12] = test system: MMP-9; experiment: as above; assay type: cell-based, human; conditions: 24 h, Conc 2.5 uM
Protocol: as §3

[13] = test system: FGF-1; experiment: as above; assay type: cell-based, human; conditions: 24 h, Conc 2.5 uM
Protocol: as §3

[14] = test system: genes encoding for proangiogenic factors, such as FGF1/2, VEGF, MMP-9, HSPE-1; experiment: Real-Time Quantitative PCR in HT1080 cells; assay type: cell-based, human; conditions: compared with SST0001 tested at 10 µM
Protocol: as §3

Row | SMILES | Adhesion Assay (%) U87MG ([1]; Conc. 2.5 µM) | IC50 [2] [nM] | EC50 [3] [nM] | EC50 [4] [nM] | EC50 [5] [nM] | Adhesion Assay (%) HT1080 ([6]; HT1080, Conc. 2.5 µM) | inhibition at 2.5 µM [7] [%] | inhibition at 2.5 µM [8] [%] | inhibition at 2.5 µM [9] [%] | Gene Expression (% mRNA vs. control) VEGF [10] | Gene Expression (% mRNA vs. control) FGF-2 [11] | Gene Expression (% mRNA vs. control) MMP-9 [12] | Gene Expression (% mRNA vs. control) FGF-1 [13] | potency in silencing gene expression [14] | Adhesion Assay (%) U87MG ([1]; Conc. 10 µM) | Adhesion Assay (%) HT1080 ([6]; HT1080, Conc. 10 µM) | Invasion Assay Inhibition (%) U87MG ([7]; Conc. 10 µM) | Invasion Assay Inhibition (%) U2OS ([8]; Conc. 10 µM) | inhibition at 10 µM ([9]; HT-1080, HT1080, Conc. 10 µM) [%]
1 | O=C(Nc1cccc(-c2nc3ccccc3[nH]2)c1)c1ccc(Oc2ccc(C(=O)Nc3cccc(-c4nc5ccccc5[nH]4)c3)cc2)cc1 [SST0656, N-[3-(1H-benzimidazol-2-yl)phenyl]-4-[4-[[3-(1H-benzimidazol-2-yl)phenyl]carbamoyl]phenoxy]benzamide] | ∼ 97% | 50 to 490 | > 2500 | > 2500 | > 2500 | ∼ 87% | < 50 | < 50 | < 50 |  |  |  |  |  |  |  |  |  | 
2 | O=C(O)c1ccc2c(c1)C(=O)N(c1ccc(NC(=O)c3cccc(C(=O)Nc4ccc(N5C(=O)c6ccc(C(=O)O)cc6C5=O)cc4Cl)c3)c(Cl)c1)C2=O [SST0859, 2-[4-[[3-[[4-(5-carboxy-1,3-dioxoisoindol-2-yl)-2-chlorophenyl]carbamoyl]benzoyl]amino]-3-chlorophenyl]-1,3-dioxoisoindole-5-carboxylic acid] | ∼ 100% |  |  |  |  | ∼ 95% | < 50 | 50 to 90 | < 50 | ∼ 61% | ∼ 73% | ∼ 40% | ∼ 67% | in the same range of reference compound SST0001 |  |  |  |  | 
3 | O=C(Nc1ccc(-c2nc3ccccc3[nH]2)cc1)c1ccc(C(=O)Nc2ccc(-c3nc4ccccc4[nH]3)cc2)cc1 [SST0856, 1,4-Benzenedicarboxamide, N1,N4-bis[4-(1H-benzimidazol-2-yl)phenyl]-] | ∼ 99% |  |  |  |  | ∼ 98% | < 50 | 50 to 90 | < 50 | ∼ 54% | ∼ 76% | ∼ 55% | ∼ 53% | in the same range of reference compound SST0001 |  |  |  |  | 
4 | Cc1ccc(C(=O)Nc2ccc(S(=O)(=O)O)c3cc(S(=O)(=O)O)cc(S(=O)(=O)O)c23)cc1NC(=O)c1cccc(NC(=O)Nc2cccc(C(=O)Nc3cc(C(=O)Nc4ccc(S(=O)(=O)O)c5cc(S(=O)(=O)O)cc(S(=O)(=O)O)c45)ccc3C)c2)c1 [Suramin, reference compound] |  |  | > 10000 | > 10000 | > 10000 |  |  |  |  |  |  |  |  |  | ∼ 73% | ∼ 100% | - | - | < 50
